Test results taken from patent US20240287368A1, “COMPOSITION CONTAINING REFRIGERANT, USE OF SAME, REFRIGERATOR HAVING SAME, AND METHOD FOR OPERATING SAID REFRIGERATOR” (DAIKIN INDUSTRIES, LTD., priority 2021, published 2024).

Columns and labels:
[1] = Occupational exposure limit (OEL) and ASHRAE toxicity class of mixed refrigerant, calculated from component OELs and mole fractions; conditions: ANSI/ASHRAE Standard 34-2019; for Occupational exposure limit: center composition of mixed refrigerant
Text: In the present specification, a “toxicity class A” refrigerant means that the occupational exposure limit (OEL) of the mixed refrigerant is 400 ppm or more in accordance with the US ANSI/ASHRAE Standard 34-2019. A “toxicity class B” refrigerant means that the occupational exposure limit of the mixed refrigerant is less than 400 ppm in accordance with the US ANSI/ASHRAE Standard 34-2019.
In the present disclosure, the occupational exposure limit (OEL) of a mixed refrigerant refers to a value evaluated based on the center composition, unless otherwise specified. However, calculation is performed with the OEL of each refrigerant as follows. • R32: 1000 ppm • R152a: 1000 ppm • HFO-1132(E): 350 ppm
The OEL of the center composition of a mixed refrigerant is calculated in accordance with the following formula.
wherein an represents the OEL of each refrigerant compound, and mfn represents the mole fraction of each refrigerant compound.
The occupational exposure limit (OEL value) of each mixed refrigerant was investigated.

[2] = component values used for the calculation; cited from earlier work

## F/C=C/F [0-1, trans-1,2-difluoroethylene]
[1]
  ASHRAE toxicity class: B (the occupational exposure limit of the mixed refrigerant is less than 400 ppm)
  Occupational exposure limit: 350 ppm
[2]
  OEL of each refrigerant: 350 ppm

## CC(F)F [0-2, 1,1-difluoroethane]
[1]
  ASHRAE toxicity class: A (the occupational exposure limit (OEL) of the mixed refrigerant is 400 ppm or more)
  Occupational exposure limit: 1000 ppm

## FCF [0-3, difluoromethane]
[1]
  ASHRAE toxicity class: A (the occupational exposure limit (OEL) of the mixed refrigerant is 400 ppm or more)
  Occupational exposure limit: 1000 ppm
[2]
  OEL of each refrigerant: 1000 ppm
